{
  "source": "patent EP1466613A1",
  "about": "“Compositions for mucosal and oral administration comprising hCG fragments” (Biotempt B.V., priority 2003, dated 2004)",
  "system": "NF-kB",
  "assay": "EMSA of nuclear extracts for basal and LPS induced NF-kB translocation, RAW 264.7 mouse macrophages (second experiment)",
  "format": "cell-based",
  "details": "RAW264.7 cells, LPS in combination with peptide, 30 minutes incubation",
  "method": "The transcription factor NF-kB participates in the transcriptional regulation of a variety of genes. Nuclear protein extracts were prepared from LPS and peptide treated RAW264.7 cells or from LPS treated RAW264.7 cells. In order to determine whether the peptide modulates the translocation of NF-kB into the nucleus, on these extracts EMSA was performed. Here we see that indeed peptides are able to modulate the translocation of NF-kB since the amount of labeled oligonucleotide for NF-kB is reduced. […] RAW 264.7 mouse macrophages were cultured in DMEM, containing 10% or 2% FBS, penicillin, streptomycin and glutamine, at 37 °C, 5% CO2. Cells were seeded in a 12-wells plate (3x10^6 cells/ml) in a total volume of 1 ml for 2hours and then stimulated with LPS (E. coli 026:B6; Difco Laboratories, Detroit, MI, USA) and/or gene-regulatory peptide(1 microgr/ml). After 30 minutes of incubation plates were centrifuged and cells were collected for nuclear extracts. Nuclear extracts and EMSA were prepared according to Schreiber et al. Cells were collected in a tube and centrifuged for 5 minutes at 2000 rpm (rounds per minute) at 4°C (Universal 30 RF, Hettich Zentrifuges). […]",
  "note": "Ends that are not written are not given here.",
  "data": [
    {"substance": "circular LQGVLPALPQVVC (also: circular, ring type not given here)", "values": [
      {"measurement": "LPS induced translocation of NF-kB", "value": "inhibition of LPS induced translocation of NF-kB"}
    ]}
  ]
}
